Laboratory results reported in PubChem BioAssay (NCI).
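Values below derive from 48-hour exposures of cells grown in 96-well plates, with endpoints linearly interpolated between the two concentrations bracketing the appropriate inhibition level. TGI: total growth inhibition.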

Legend:
Assay in all cases: NCI anticancer screen, dose series, 48 h
[1] = tested on: KM20L2 colon
[2] = tested on: HOP-18 NSCLC
[3] = tested on: M19-MEL melanoma
[4] = tested on: DMS 273 small cell lung
[5] = tested on: DMS 114 small cell lung
[6] = tested on: SNB-78 CNS
[7] = tested on: XF 498 CNS
[8] = tested on: RXF-631 renal

**Q.** What does the source list for CC(C)C(CCOS(=O)(=O)O)CCC(C)[C@H]1[C@@H](O)C(O)C2[C@]3(O)C[C@@H](O)C4(O)C[C@@H](O)CC[C@]4(C)C3CC[C@@]21C (stereo partly specified)?
**A.** TGI [1]: > 100 µM; TGI [2]: > 100 µM; TGI [3]: > 100 µM; TGI [4]: > 100 µM; TGI [5]: > 100 µM; TGI [6]: > 100 µM; TGI [7]: > 100 µM

**Q.** With CCN(/N=C1\CC2C=CCN(C2)C(=O)Cc2c1[nH]c1ccccc21)S(=O)(=O)c1ccc(C)cc1 (stereo unspecified) as the molecule, how does the TGI [1] read?
**A.** > 100 µM

**Q.** What about the TGI [8] of the same molecule?
**A.** > 100 µM

**Q.** What about the TGI [3] of the same molecule?
**A.** > 100 µM

**Q.** What about the TGI [4] of the same molecule?
**A.** > 100 µM

**Q.** And the TGI [5]?
**A.** > 100 µM

**Q.** What about the TGI [7] of the same molecule?
**A.** > 100 µM

**Q.** Which results are given for CC#CC#C/C=C1\C=CC2(OC=CC2O)O1 (stereo unspecified)?
**A.** TGI [1]: 10.4 µM; TGI [2]: 14.9 µM; TGI [3]: > 23.3 µM; TGI [4]: > 23.3 µM; TGI [5]: > 22.5 µM; TGI [6]: > 7.37 µM; TGI [7]: > 23.3 µM

**Q.** How did the TGI [1] turn out when C/C(CCN(C)C)=N\OC(=O)c1ccccc1 was run?
**A.** > 100 µM

**Q.** And the TGI [2]?
**A.** 8.9 µM

**Q.** And the TGI [3]?
**A.** > 100 µM

**Q.** What about the TGI [4] of the same molecule?
**A.** > 100 µM

**Q.** And the TGI [5]?
**A.** > 100 µM

**Q.** And the TGI [6]?
**A.** > 100 µM

**Q.** Which results are given for C=C1CN2CCc3c([nH]c4ccccc34)C2CC1CC(=O)N(C)C (stereo unspecified)?
**A.** TGI [1]: > 309 µM; TGI [2]: > 309 µM; TGI [3]: > 309 µM; TGI [4]: > 309 µM; TGI [5]: > 309 µM; TGI [7]: > 309 µM

**Q.** For CC(N)C(C)c1ccccc1 (stereo unspecified), which TGI [1] is on record?
**A.** > 100 µM

**Q.** And the TGI [2]?
**A.** > 100 µM

**Q.** What about the TGI [4] of the same molecule?
**A.** > 100 µM

**Q.** What about the TGI [5] of the same molecule?
**A.** > 100 µM

**Q.** What about the TGI [6] of the same molecule?
**A.** > 100 µM

**Q.** What about the TGI [7] of the same molecule?
**A.** > 100 µM

**Q.** Which TGI [1] does the source give for COc1cccc(/C=N/[N-]C(N)=O)c1[O-].[Co+2].[OH3+].c1ccncc1 here?
**A.** > 100 µM

**Q.** Which results are given for CCCC(C(=O)OC)C1N=C(NC#N)N(Cc2ccccc2)C1=O (stereo unspecified)?
**A.** TGI [1]: > 100 µM; TGI [3]: > 100 µM; TGI [4]: > 100 µM; TGI [5]: > 100 µM; TGI [7]: > 100 µM

**Q.** What does the source list for COc1ccc(-c2cc(=O)c3cc(O)ccc3o2)c(OC)c1OC?
**A.** TGI [1]: 58.1 µM; TGI [8]: > 100 µM; TGI [3]: > 100 µM; TGI [5]: > 100 µM; TGI [7]: > 100 µM

**Q.** Which TGI [1] does the source give for CC1CCc2c(sc3ncnc(N/N=C/c4ccc(Cl)cc4)c23)C1 (stereo unspecified) here?
**A.** 62.7 µM

**Q.** What about the TGI [4] of the same molecule?
**A.** > 100 µM
